Measured values from PubChem BioAssay (NCI).
Several values for one entry are separate records, joined by “and”; a condition that tells them apart may be missing. Identical values can stand only once.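 Compound exposure: 48 hours, 5 concentrations, 96-well plates. At the GI50, growth is halved. TGI is the concentration that stops growth completely.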

Experiments:
Assay in all cases: NCI anticancer screen, dose series, 48 h
OVCAR-3 ovarian = tested on: OVCAR-3 ovarian
SF-539 CNS = tested on: SF-539 CNS
NCI/ADR-RES ovarian = tested on: NCI/ADR-RES ovarian
IGROV1 ovarian = tested on: IGROV1 ovarian
MDA-MB-231 breast = tested on: MDA-MB-231 breast
HCC-2998 colon = tested on: HCC-2998 colon
NCI-H23 lung = tested on: NCI-H23 lung
ACHN renal = tested on: ACHN renal
SR leukemia = tested on: SR leukemia
CAKI-1 renal = tested on: CAKI-1 renal

SMILES	GI50 (OVCAR-3 ovarian)	TGI (OVCAR-3 ovarian)	GI50 (SF-539 CNS)	TGI (SF-539 CNS)	GI50 (NCI/ADR-RES ovarian)	TGI (NCI/ADR-RES ovarian) [µM]	GI50 (IGROV1 ovarian)	TGI (IGROV1 ovarian)	GI50 (MDA-MB-231 breast)	TGI (MDA-MB-231 breast)	GI50 (HCC-2998 colon)	TGI (HCC-2998 colon)	GI50 (NCI-H23 lung)	TGI (NCI-H23 lung)	GI50 (ACHN renal)	TGI (ACHN renal)	GI50 (SR leukemia)	TGI (SR leukemia)	GI50 (CAKI-1 renal)	TGI (CAKI-1 renal)
Cn1ccnc1C(=O)/C=C/c1ccc(C(=O)Nc2c(F)c(F)c(F)c(F)c2F)cc1	1.4 µM	2.74 µM	1.67 µM	3.13 µM	3.09 µM	12.9	1.75 µM	3.98 µM	2.27 µM	6.7 µM	1.64 µM	3.14 µM	2.01 µM	5.35 µM	1.65 µM	3.01 µM	0.339 µM	2.26 µM	1.53 µM	3.11 µM
O=C(Oc1ccc2c(c1)CN(Cc1ccccc1)CO2)c1ccccc1	–	29.7 µM	–	32.3 µM	–	59.3	–	27 µM	–	36 µM	–	28.2 µM	–	30 µM	–	32.9 µM	–	69.2 µM	–	37.8 µM
O=NN(CCCl)C(=O)NC1CCCCC1	13.5 µM	34.5 µM and 142 µM	16.4 µM and 33 µM	34 µM and 84.4 µM and 124 µM	–	186	19.7 µM and 73.2 µM	57.4 µM and 150 µM and 162 µM	–	57 µM	34.5 µM and 64.6 µM	123 µM and 101 µM	116 µM	152 µM and 235 µM	23.2 µM and 82.7 µM	57.6 µM and 153 µM and 182 µM	9.14 µM	–	22.9 µM and 30.5 µM and 60.5 µM	41.7 µM and 101 µM and 142 µM
COc1ccc(OCC(O)CN2CCN(c3ccc(Cl)cc3)CC2)cc1 (centres undefined)	> 100 µM	> 100 µM	> 100 µM	> 100 µM	> 100 µM	> 100	18.1 µM	> 100 µM	66.1 µM	> 100 µM	> 100 µM	> 100 µM	> 100 µM	> 100 µM	65.9 µM	> 100 µM	> 100 µM	> 100 µM	8.86 µM	> 100 µM
CCSc1ncc(Br)c(Sc2nc(N)nc3nc[nH]c23)n1	2.55 µM	25 µM	3.52 µM	31.5 µM	3.48 µM	> 100	2.7 µM	30 µM	2.8 µM	> 100 µM	2.78 µM	32.2 µM	2.69 µM	> 100 µM	6.58 µM	> 100 µM	1.83 µM	> 100 µM	3.43 µM	> 100 µM
COc1cc(/C=C\c2cc(OC)c(OC)c(OC)c2)cc(NS(=O)(=O)c2ccc(Cl)cc2)c1OC	0.364 µM	> 100 µM	0.303 µM	2.58 µM	0.365 µM	> 100	0.904 µM	> 100 µM	1.16 µM	> 100 µM	1.98 µM	> 100 µM	0.71 µM	> 100 µM	0.586 µM	29.9 µM	0.406 µM	10.5 µM	0.374 µM	50 µM
N#CC(NC(=O)CCl)=C(Cl)Cl	1.13 µM	2.46 µM	1.84 µM	3.53 µM	2.95 µM	16.8	1.18 µM	2.92 µM	1.73 µM	3.24 µM	1.89 µM	3.41 µM	1.7 µM	3.56 µM	1.22 µM	2.51 µM	0.702 µM	2.68 µM	1.69 µM	3.14 µM
COc1ccc(/C(C)=C(\c2ccc(Cl)cc2)c2ccc(OCCN3CCCCCC3)cc2)cc1F	2.98 µM	5.89 µM	2.18 µM	4.39 µM	4 µM	12.4	3.07 µM	9.34 µM	3.29 µM	6.11 µM	3.81 µM	9.38 µM	3.07 µM	10.4 µM	5.19 µM	> 16.7 µM	2.26 µM	12.3 µM	3.37 µM	7.7 µM
C=C(Cn1c2ccccc2c(=O)c2ccccc21)c1ccc(C(=O)Nc2ccccc2N)cc1	6.5 µM	> 100 µM	3.59 µM	> 100 µM	2.31 µM	> 100	> 19.8 µM	> 100 µM	3.72 µM	56 µM	3.67 µM	> 61.2 µM	45.1 µM	> 100 µM	> 100 µM	> 100 µM	0.605 µM	2.25 µM	> 26 µM	> 100 µM
CN(C)c1ccc(N=C2C=CC(=C(C#N)C#N)c3ccccc32)cc1	–	1.46 µM	–	0.576 µM	–	2.34	–	6.11 µM	–	2.66 µM	–	0.63 µM	–	4.19 µM	–	10.6 µM	–	48.1 µM	–	12.7 µM
COC(=O)c1ccc2[nH]c(O)c(C(=Nc3ccc(N(C)C(=O)CN4CCN(C)CC4)cc3)c3ccccc3)c2c1	1.41 µM	3.23 µM	0.44 µM	1.72 µM	9.36 µM	36.4	0.297 µM	1.83 µM	1.28 µM	3.17 µM	3.89 µM	18.2 µM	1.29 µM	4.14 µM	1.13 µM	4.12 µM	0.224 µM	10.2 µM	0.21 µM	1.25 µM
Nc1nc(=S)c2[nH]cnc2[nH]1	0.446 µM and 1.44 µM and 1.1 µM	6.32 µM and 7.68 µM and 9.64 µM	0.483 µM and 0.606 µM and 1.41 µM	68.8 µM [middle of 4 runs]	0.37 µM and 0.421 µM and 0.96 µM	–	3.23 µM and 6.02 µM	> 96.1 µM and 150 µM and 162 µM	0.323 µM and 1.36 µM	> 100 µM and 150 µM and > 250 µM	0.382 µM and 1.19 µM	6.93 µM and 16.7 µM and 4.98 µM	0.481 µM and 3.07 µM	–	0.89 µM and 4.03 µM	41.8 µM and 104 µM	0.0786 µM and 0.588 µM	> 24.7 µM and 15.7 µM	0.264 µM and 0.345 µM and 0.888 µM	–
